# Reference: patent US11642413B2, “Compounds for degrading Tau protein aggregates and uses thereof” (Aprinoia Therapeutics Limited, priority 2019, dated 2023)
# How the values were obtained:
# [1] = target: heparin-induced aggregated Tau (aTau) (Homo sapiens (Human), UniProt P10636); assay: PBB5 competition assay; type: binding; conditions: for Bmax: competition assay with PBB5; for IC50: 0.12 μM aTau, 0.1 μM PBB5, 37° C., 1 hour
# Procedure: 1 mM IPTG (Sangon Biotech, Cat. No A100487) was used to induce production of tau by bacteria (BL21, Invitrogen, Cat. No C600003) transformed with a full-length 2N4R tau expression plasmid. After 3 hours, cell pellet was resuspended in lysis buffer (100 mM PIPES, 1 mM EGTA, 1 mM MgSO4, pH 6.8) and lysed by sonication followed by centrifugation (15,000 rpm, 15 min, 4° C.). The supernatant was then placed in a boiling water bath for 20 min, followed by centrifugation (15,000 rpm, 15 min, 4° C.). Supernatant was loaded onto a Q-Sepharose® Fast Flow column (GE healthcare, Cat. No 17-0510-01), the flow-through fraction was loaded onto an SP-Sepharose® Fast Flow column (GE healthcare, Cat. No 17-0729-01), and tau protein was eluted with elution buffer (100 mM PIPES, 1 M NaCl, 1 mM EGTA, 1 mM MgSO4, 0.2 M NaCl, pH 6.8). Collected fractions of tau-containing eluates were pooled, concentrated and dialyzed against HEPES buffer (25 mM HEPES, 0.1 mM EDTA, 0.5 mM DTT, 100 mM NaCl, pH 7.2) and stored at −80° C. in small aliquots until use. Protein concentration was determined by UV absorption.
# 2 μM of tau prepared in 30 mM Tris-HCl, pH 7.5 buffer was incubated in tube with 15 μM heparin (Sigma, Cat. No H3149) at 37° C. for 24 hours.
# 2 μM of aTau was diluted to 0.12 μM by […] (pH 6.8) and then incubated with 0.1 μM 2-(4-(2-(methylamino)pyridine-5-yl)-1,3-butadiene-1-yl)benzothiazole-6-ol (PBB5) and serially diluted compound (three-fold serial dilution, from 10 to 0.00017 μM) in a 96-well plate (Corning, Cat. No 3573) at 37° C. for 1 hour. Fluorescence intensity (excitation/emission=530/690 nm) of PBB5 was read by microplate spectrometer (EnSpire 2300, PerkinElmer). Percentage of competition was calculated using the following equation: (Max−well of compound alone)/(Max−Min)*100%, where Max=(Tau+PBB5) signals−(buffer+PBB5) signals; and Min=(buffer+PBB5) signals−(buffer+PBB5) signals.
# The IC50 value of each compound was calculated with GraphPad Prism software using the “4 Parameter Logistic Model or Sigmoidal Dose-Response Model”: Y=Bottom+(Top−Bottom)/(1+(IC50/X)^HillSlope)
# [2] = target: heparin-induced aggregated Tau (aTau), full-length 2N4R tau (Homo sapiens (Human), UniProt P10636); assay: In vitro fluorometric aTau binding assay; conditions: 0.04 μM aTau, 37° C., 1 hour, fluorescence intensity
# Sequence of heparin-induced aggregated Tau (aTau), full-length 2N4R tau (P10636 other isoform, or with tags, fused parts or gaps): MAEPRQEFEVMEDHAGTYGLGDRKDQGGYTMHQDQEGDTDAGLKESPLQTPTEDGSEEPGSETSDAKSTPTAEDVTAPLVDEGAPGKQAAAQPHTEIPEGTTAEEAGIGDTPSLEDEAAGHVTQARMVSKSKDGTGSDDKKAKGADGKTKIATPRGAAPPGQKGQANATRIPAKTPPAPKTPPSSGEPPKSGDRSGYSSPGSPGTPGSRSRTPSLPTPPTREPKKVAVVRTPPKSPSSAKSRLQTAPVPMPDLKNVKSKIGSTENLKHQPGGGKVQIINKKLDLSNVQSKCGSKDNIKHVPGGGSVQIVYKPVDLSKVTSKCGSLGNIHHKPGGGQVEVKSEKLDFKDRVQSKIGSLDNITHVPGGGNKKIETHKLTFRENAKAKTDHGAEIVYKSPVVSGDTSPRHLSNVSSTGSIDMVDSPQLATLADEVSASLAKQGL
# Procedure: 1 mM IPTG (Sangon Biotech, Cat. No A100487) was used to induce production of tau by bacteria (BL21, Invitrogen, Cat. No C600003) transformed with a full-length 2N4R tau expression plasmid. After 3 hours, cell pellet was resuspended in lysis buffer (100 mM PIPES, 1 mM EGTA, 1 mM MgSO4, pH 6.8) and lysed by sonication followed by centrifugation (15,000 rpm, 15 min, 4° C.). The supernatant was then placed in a boiling water bath for 20 min, followed by centrifugation (15,000 rpm, 15 min, 4° C.). […] Protein concentration was determined by UV absorption. […]
# 2 μM aTau was diluted to 0.04 μM with 30 mM Tris-HCl (pH 6.8), and then incubated with serially diluted compound (three-fold serial dilutions, from 10 to 0.00017 μM) in a 96-well plate (Corning, Cat. No 3573) at 37° C. for 1 hour. Fluorescence intensity (excitation/emission=370/500 nm) of APN-0729 was read by microplate spectrometer (EnSpire 2300, PerkinElmer). Compound Kd values were calculated using the following equation: Y=Bmax*X/(Kd+X), where X is the concentration of compound; Y is the fluorescence signal of (compound+aTau)−(compound+DMSO); and Bmax is the maximum signal.
# [3] = In vivo pharmacokinetic study of plasma and brain tissue; conditions: mice, 1 mg/kg, intravenous
# Procedure: To determine whether the compounds of the present disclosure are capable of crossing the blood brain barrier (BBB), example compound 160313 was administered to mice in a pharmacokinetic study (1 mg/kg, intravenous) of plasma and brain tissue.
# Animal Husbandry: Mice were housed at animal room environment with ventilation 15 times/hour, lighting 12 hours/day, temperature 20° C. to 24° C. and humidity 40% to 70%. The study rooms were disinfected and cleaned prior to the start of the study and the operation area was cleaned after each dosing or sampling during the study conduct. All animals had free access to food and water during the study. The animals had access to Certified Rodent Diet and water ad libitum. The nutritional composition and levels of contaminants of the diet and impurities and contaminants of the water were monitored by third organization. The health status of the animals was evaluated in accordance with accepted animal husbandry procedures and deemed suitable for experimental use.
# Sample Collection & Processing: Approximately 110 μL of whole blood were collected from all animals via facial or cardiac puncture under anesthesia with Isoflurane into test tubes containing potassium ethylenediaminetetraacetate (K2EDTA) at 0.25, 0.5, 1, 2, 4, 8 and 24 hr post dose. Brian samples were collected at 0.25, 0.5, 1, 2, 4, 8 and 24 hours post dose. A perfusion with pre-cold saline will be conducted via cardiac puncture before brain collection. Blood samples were centrifuged at 2000 g at 4° C. for 5 minutes to obtain plasma samples by transferring the supernatants into new tubes. All plasma and brain samples were stored at approximately −70° C. until analysis.
# Bioanalytical Method Development: The concentrations of compound in plasma and brain samples were determined using a liquid chromatography with tandem mass spectrometry (LC-MS/MS) based method.
# Sequence of heparin-induced aggregated Tau (aTau) (P10636 other isoform, or with tags, fused parts or gaps): as above
structure (smiles),measurement,setting,value
"CN(C)c1ccc(-c2ccc(-c3nc4ccc(NCCOCCOCCOCCOCCOCCOc5ccc6c(c5)CN(C5CCC(=O)NC5=O)C6=O)cc4s3)cc2)cn1 (stereo not drawn) [Compound 160273, 3-[6-[2-[2-[2-[2-[2-[2-[[2-[4-[6-(dimethylamino)pyridin-3-yl]phenyl]-1,3-benzothiazol-6-yl]-amino]ethoxy]ethoxy]ethoxy]ethoxy]-ethoxy]ethoxy]-3-oxo-1H-isoindol-2-yl]piperidine-2,6-dione]",Bmax,[1],59%
CN(C)c1ccc(-c2ccc(-c3cn4cc(OCCOCCN5C(=O)CCC(N6C(=O)c7ccc(O)cc7C6=O)C5=O)ccc4n3)cc2)c(F)n1 (stereo not drawn) [Compound 160570],Kd,[2],360 nM
same,IC50,[1],2260 nM
same,Bmax,[1],=100%
"CN(C)c1ccc(-c2ccc(-c3nc4ccc(NCCOCCOc5ccc6c(c5)C(=O)N(C5CCC(=O)NC5=O)C6=O)cc4s3)cc2)cn1 (stereo not drawn) [Compound 160219, 2-[2,6-bis(oxo)piperidin-3-yl]-5-[2-[2-[[2-[4-[6-(dimethylamino)pyridin-3-yl]phenyl]-1,3-benzothiazol-6-yl]amino]ethoxy]ethoxy]isoindole-1,3-dione]",Bmax,[1],69%
"CN(C)c1ccc2nc(-c3ccc(-c4ccc(NCCOCCOCCOCCOCCOCCOc5ccc6c(c5)CN(C5CCC(=O)NC5=O)C6=O)nc4)cc3)sc2c1 (stereo not drawn) [Compound 160383, 3-[6-[2-[2-[2-[2-[2-[2-[[5-[4-[6-(dimethylamino)-1,3-benzothiazol-2-yl]-phenyl]pyridin-2-yl]amino]ethoxy]ethoxy]ethoxy]ethoxy]-ethoxy]ethoxy]-3-oxo-1H-isoindol-2-yl]piperidine-2,6-dione]",Bmax,[1],80%
"CN(C)c1ccc(-c2ccc(-c3cn4cc(OCCOCCOCCOCCOCCOCCOc5ccc6c(c5)C(=O)N(C5CCC(=O)NC5=O)C6=O)ccc4n3)cc2)c(F)n1 (stereo not drawn) [Compound 160744, 2-[2,6-bis(oxo)piperidin-3-yl]-5-[2-[2-[2-[2-[2-[2-[2-[4-[6-(dimethyl-amino)-2-fluoro-pyridin-3-yl]phenyl]imidazo[1,2-a]pyridin-6-yl]oxyethoxy]ethoxy]ethoxy]-ethoxy]ethoxy]ethoxy]isoindole-1,3-dione]",Bmax,[1],113%
"CN(C)c1ccc(-c2ccc(-c3nc4ccc(NCCOCCOCCOCCOCCOCCOc5ccc6c(c5)C(=O)N(C5CCC(=O)NC5=O)C6=O)cc4s3)cc2)cn1 (stereo not drawn) [Compound 159985, 2-[2,6-bis(oxo)piperidin-3-yl]-5-[2-[2-[2-[2-[2-[2-[[2-[4-[6-(dimethylamino)-pyridin-3-yl]phenyl]-1,3-benzothiazol-6-yl]amino]ethoxy]ethoxy]ethoxy]ethoxy]ethoxy]-ethoxy]isoindole-1,3-dione]",Bmax,[1],71%
CN(C)c1ccc2nc(-c3ccc(-c4ccc(NCCOCCN5C(=O)CCC(N6C(=O)c7ccc(O)cc7C6=O)C5=O)nc4)cc3)sc2c1 (stereo not drawn) [Compound 160703],Kd,[2],100 nM
same,IC50,[1],1000 nM
same,Bmax,[1],=100%
"CN(C)c1ccc(-c2ccc(-c3nc4ccc(NCCOCCOc5ccc6c(c5)CN(C5CCC(=O)NC5=O)C6=O)cc4s3)cc2)cn1 (stereo not drawn) [Compound 160313, 3-[6-[2-[2-[[2-[4-[6-(dimethylamino)pyridin-3-yl]phenyl]-1,3-benzothiazol-6-yl]amino]ethoxy]ethoxy]-3-oxo-1H-isoindol-2-yl]piperidine-2,6-dione]",BBB penetration,[3],able to penetrate BBB in short period of time
same,Kp,"[3]; mouse, brain/plasma, read-out: brain/plasma ratio",~0.31
same,AUC(0-t),"[3]; mouse, Brain",117 ng·h/mL
same,Cmax,"[3]; mouse, Brain",111 ng/mL
same,Tmax,"[3]; mouse, Brain",15 min
same,half-life,"[3]; mouse, Brain",61.8 min
same,AUC(0-t),"[3]; mouse, Plasma",379 ng·h/mL
same,half-life,"[3]; mouse, Plasma",27.6 min
same,Bmax,[1],64%
"CN(C)c1ccc2nc(-c3ccc(-c4ccc(NCCOCCOCCOCCOCCOCCOc5ccc6c(c5)C(=O)N(C5CCC(=O)NC5=O)C6=O)nc4)cc3)sc2c1 (stereo not drawn) [Compound 160275, 2-[2,6-bis(oxo)piperidin-3-yl]-5-[2-[2-[2-[2-[2-[2-[[5-[4-[6-(dimethylamino)-1,3-benzothiazol-2-yl]phenyl]pyridin-2-yl]amino]ethoxy]ethoxy]-ethoxy]ethoxy]ethoxy]ethoxy]isoindole-1,3-dione]",Bmax,[1],96%
